These results are taken from patent publication US9751837B2, “Kinase inhibitors” (RESPIVERT LIMITED, priority 2014, dated 2017).

In brackets after ≈: the same amount, converted by molar mass.

Data set [1] is described as follows: Solubility in fasted-state simulated colonic fluid (FaSSCoF) at pH 6.5. In kind it is physicochemical. Conditions: 25 °C, pH 6.5, fassgf or other biorelevant, thermodynamic from solid. Summed up:
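Compounds were suspended at up to 2-10 mg/mL in pH 6.5 Tris/maleate FaSSCoF containing a five-bile-acid mixture, phosphatidylcholine, palmitic acid and BSA. After 24 h equilibration at 25° C the suspension was filtered and the filtrate quantified by HPLC peak area against a standard.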

Data set [2] deals with Jurkat cells. Kind of data set: Cell cytotoxicity assay (r). The format is cell-based, human. Conditions: 24 hours. The protocol: 1×10^5 Jurkat cells (immortalised human T lymphocytes) are added to the appropriate number of wells of a 96 well plate in 100 μL of media (RPMI supplemented with 10% foetal bovine serum). 1 μL of DMSO control (final concentration 1.0% v/v) or test compound (final concentration 20, 5 or 1 μg/mL) is added to the wells and incubated at 37° C., 5% CO2. After 24 hours, the plate is centrifuged at 1200 rpm for 3 minutes and the supernatant discarded. Cells are then resuspended in 150 μL (final concentration 7.5 μg/mL) of propidium iodide (PI) in PBS and incubated at 37° C., 5% CO2 for 15 minutes. After 15 minutes, cells are analysed by flow cytometry (BD accuri) using the FL3 window. The % viability is calculated as the % of cells that are PI negative in the test wells normalised to the DMSO control.

[3] abbreviates: pH 6.5 FaSSCoF Solubility (mg/mL) Run 1.
[4] abbreviates: pH 6.5 FaSSCoF Solubility (mg/mL) Run 2.

With `COc1cc(Nc2nccc(Oc3ccc(NC(=O)Nc4cc(C(C)(C)C)cc(NS(C)(=O)=O)c4OC)c4ccccc34)n2)ccc1C(=O)NCCCN1CCN(C)CC1` [17(ap), 4-((4-((4-(3-(5-(tert-Butyl)-2-methoxy-3-(methylsulfonamido)phenyl)ureido)naphthalen-1-yl)oxy)pyrimidin-2-yl)amino)-2-methoxy-N-(3-(4-methylpiperazin-1-yl)propyl)benzamide], the thermodynamic solubility at 24 h in data set [1] (setting [3]) and in data set [1] (setting [4]) was under 1 µg/mL throughout. Also, in data set [2], the “% Viability at 20 μg/mL” value stood at 0.6%.
Turning to `COc1cc(Nc2nccc(Oc3ccc(NC(=O)Nc4cc(C(C)(C)C)cc(NS(C)(=O)=O)c4OC)c4ccccc34)n2)ccc1C(=O)NCCN1CCN(C)CC1` [17(aq), 4-((4-((4-(3-(5-(tert-Butyl)-2-methoxy-3-(methylsulfonamido)phenyl)ureido)naphthalen-1-yl)oxy)pyrimidin-2-yl)amino)-2-methoxy-N-(2-(4-methylpiperazin-1-yl)ethyl)benzamide], the thermodynamic solubility at 24 h in data set [1] (setting [3]) was under 1 µg/mL. Moreover, the thermodynamic solubility at 24 h in data set [1] (setting [4]) was under 1 µg/mL. Moreover, in data set [2], the “% Viability at 5 μg/mL” value was 0.2% and the “% Viability at 20 μg/mL” value is given as 1.3%.
For the compound `COc1cc(Nc2cc(Oc3ccc(NC(=O)Nc4cc(C(C)(C)C)cc(NS(C)(=O)=O)c4OC)c4ccccc34)ccn2)cc(OC)c1C(=O)NCCCN1CCN(C)CC1` [17(au), 4-((4-((4-(3-(5-(tert-Butyl)-2-methoxy-3-(methylsulfonamido)phenyl)ureido)naphthalen-1-yl)oxy)pyridin-2-yl)amino)-2,6-dimethoxy-N-(3-(4-methylpiperazin-1-yl)propyl)benzamide], the solubility (thermodynamic) at 24 h in data set [1] (setting [3]) is 32 µg/mL (≈ 36.8 µM); in data set [1] (setting [4]), 23 µg/mL (≈ 26.5 µM). In addition, the “% Viability at 1 μg/mL” value in data set [2] (1 μg/mL) was found to be 94.0%.
Take `COc1cc(Nc2nccc(Oc3ccc(NC(=O)Nc4cc(C(C)(C)C)cc(NS(C)(=O)=O)c4OC)c4ccccc34)n2)cc(OC)c1C(=O)NCCN1CCN(C)CC1` [17(az), 4-((4-((4-(3-(5-(tert-Butyl)-2-methoxy-3-(methylsulfonamido)phenyl)ureido)naphthalen-1-yl)oxy)pyrimidin-2-yl)amino)-2,6-dimethoxy-N-(2-(4-methylpiperazin-1-yl)ethyl)benzamide]: the thermodynamic solubility at 24 h in data set [1] (setting [3]) and in data set [1] (setting [4]) was 1 µg/mL (≈ 1.17 µM) in each case. For the same compound, in data set [2], the “% Viability at 20 μg/mL” value was 4.5%.
As to `COc1cc(Nc2cc(Oc3ccc(NC(=O)Nc4cc(C(C)(C)C)cc(NS(C)(=O)=O)c4OC)c4ccccc34)ccn2)ccc1S(=O)(=O)N(C)CCN1CCN(C)CC1` [17(bb), 4-((4-((4-(3-(5-(tert-Butyl)-2-methoxy-3-(methylsulfonamido)phenyl)ureido)naphthalen-1-yl)oxy)pyridin-2-yl)amino)-2-methoxy-N-methyl-N-(2-(4-methylpiperazin-1-yl)ethyl)benzenesulfonamide], the thermodynamic solubility at 24 h in data set [1] (setting [3]) and in data set [1] (setting [4]) was under 1 µg/mL in each case. Moreover, in data set [2], the “% Viability at 20 μg/mL” value came out at 0.2%.
For `COc1cc(Nc2cc(Oc3ccc(NC(=O)Nc4cc(C(C)(C)C)cc(NS(C)(=O)=O)c4OC)c4ccccc34)ccn2)ccc1C(=O)NCCN1CCN(C(C)C)CC1` [17(bf), 4-((4-((4-(3-(5-(tert-Butyl)-2-methoxy-3-(methylsulfonamido)phenyl)ureido)naphthalen-1-yl)oxy)pyridin-2-yl)amino)-N-(2-(4-isopropylpiperazin-1-yl)ethyl)-2-methoxybenzamide], the thermodynamic solubility at 24 h in data set [1] (setting [3]) was 13 µg/mL (≈ 15.2 µM). Also, the thermodynamic solubility at 24 h in data set [1] (setting [4]) is 15 µg/mL (≈ 17.6 µM). Also, in data set [2], the “% Viability at 5 μg/mL” value worked out at 1.5% and the “% Viability at 20 μg/mL” value was found to be 0.6%.
Consider `COc1cc(Nc2cc(Oc3ccc(NC(=O)Nc4cc(C(C)(C)C)cc(NS(C)(=O)=O)c4OC)c4ccccc34)ccn2)ccc1C(=O)NCCC1(O)CCN(C)CC1` [17(bg), 4-((4-((4-(3-(5-(tert-Butyl)-2-methoxy-3-(methylsulfonamido)phenyl)ureido)naphthalen-1-yl)oxy)pyridin-2-yl)amino)-N-(2-(4-hydroxy-1-methylpiperidin-4-yl)ethyl)-2-methoxy benzamide], for which the solubility (thermodynamic) at 24 h is 16 µg/mL (≈ 19 µM) in data set [1] (setting [3]) and 19 µg/mL (≈ 22.6 µM) in data set [1] (setting [4]). Also, the “% Viability at 5 μg/mL” value in data set [2] was 60.0%. The “% Viability at 20 μg/mL” value in data set [2] is reported as 0.3%.
`COc1cc(Nc2cc(Oc3ccc(NC(=O)Nc4cc(C(C)(C)C)cc(NS(C)(=O)=O)c4OC)c4ccccc34)ccn2)ccc1C(=O)N(C)CCN1CCN(C)CC1` [17(bh), 4-((4-((4-(3-(5-(tert-Butyl)-2-methoxy-3-(methylsulfonamido)phenyl)ureido)naphthalen-1-yl)oxy)pyridin-2-yl)amino)-2-methoxy-N-methyl-N-(2-(4-methylpiperazin-1-yl)ethyl)benzamide]: the thermodynamic solubility at 24 h is 16 µg/mL (≈ 19.1 µM) in data set [1] (setting [3]) and 19 µg/mL (≈ 22.6 µM) in data set [1] (setting [4]). Moreover, in data set [2], the “% Viability at 20 μg/mL” value came to 0.6%.
`COc1cc(Nc2cc(Oc3ccc(NC(=O)Nc4cc(C(C)(C)C)cc(NS(C)(=O)=O)c4OC)c4ccccc34)ccn2)ccc1C(=O)NC(C)CN1CCN(C)CC1` (stereo not drawn) [17(bl), 4-((4-((4-(3-(5-(tert-Butyl)-2-methoxy-3-(methylsulfonamido)phenyl)ureido)naphthalen-1-yl)oxy)pyridin-2-yl)amino)-2-methoxy-N-(1-(4-methylpiperazin-1-yl)propan-2-yl)benzamide] returned a thermodynamic solubility at 24 h in data set [1] (setting [3]) of 16 µg/mL (≈ 19.1 µM). In data set [1] (setting [4]), this compound registered a solubility (thermodynamic) at 24 h of 17 µg/mL (≈ 20.3 µM). In data set [2], the “% Viability at 5 μg/mL” value amounted to 0.2% and the “% Viability at 20 μg/mL” value was 0.5%.
For `COc1cc(Nc2cc(Oc3ccc(NC(=O)Nc4cc(C(C)(C)C)cc(NS(C)(=O)=O)c4OC)c4ccccc34)ccn2)ccc1C(=O)NCCOCCO` [17(bm), 4-((4-((4-(3-(5-(tert-Butyl)-2-methoxy-3-(methylsulfonamido)phenyl)ureido)naphthalen-1-yl)oxy)pyridin-2-yl)amino)-N-(2-(2-hydroxyethoxy)ethyl)-2-methoxybenzamide] the same measures were 5 µg/mL (≈ 6.35 µM), 5 µg/mL (≈ 6.35 µM), 0.2% and 0.5%.
Regarding `COc1cc(Nc2cc(Oc3ccc(NC(=O)Nc4cc(NS(C)(=O)=O)cc(C(C)(C)C)c4)c4ccccc34)ccn2)ccc1C(=O)NCCN1CCN(C)CC1` [17(bo), 4-((4-((4-(3-(3-(tert-Butyl)-5-(methylsulfonamido)phenyl)ureido)naphthalen-1-yl)oxy)pyridin-2-yl)amino)-2-methoxy-N-(2-(4-methylpiperazin-1-yl)ethyl)benzamide], the solubility (thermodynamic) at 24 h was 35 µg/mL (≈ 44 µM) in data set [1] (setting [3]) and 33 µg/mL (≈ 41.5 µM) in data set [1] (setting [4]). Also, in data set [2], the “% Viability at 20 μg/mL” value was determined as 14.0%.
For `COc1cc(Nc2cc(Oc3ccc(NC(=O)Nc4cc(NS(C)(=O)=O)cc(C(C)(C)C)c4)c4ccccc34)ccn2)ccc1C(=O)NCCCN1CCN(C)CC1` [17(bp), 4-((4-((4-(3-(3-(tert-Butyl)-5-(methylsulfonamido)phenyl)ureido)naphthalen-1-yl)oxy)pyridin-2-yl)amino)-2-methoxy-N-(3-(4-methylpiperazn-1-yl)propyl)benzamide], the results for the thermodynamic solubility at 24 h in data set [1] (setting [3]) and in data set [1] (setting [4]) were 23 µg/mL (≈ 28.4 µM) and 24 µg/mL (≈ 29.7 µM), respectively. For the same compound, the “% Viability at 5 μg/mL” value in data set [2] was 41.0%. In data set [2], the “% Viability at 20 μg/mL” value is 2.0%.
Consider `COc1c(NC(=O)Nc2ccc(Oc3ccnc(Nc4ccc(C(=O)NCCN5CCN(C)CC5)c(N(C)C)c4)c3)c3ccccc23)cc(C(C)(C)C)cc1NS(C)(=O)=O` [17(bq), 4-((4-((4-(3-(5-(tert-Butyl)-2-methoxy-3-(methylsulfonamido)phenyl)ureido)naphthalen-1-yl)oxy)pyridin-2-yl)amino)-2-(dimethylamino)-N-(2-(4-methylpiperazin-1-yl)ethyl)benzamide], for which the thermodynamic solubility at 24 h in data set [1] (setting [3]) and in data set [1] (setting [4]) was 9 µg/mL (≈ 10.7 µM) in each case. The “% Viability at 20 μg/mL” value in data set [2] was 2.0%.
As for `COc1cc(Nc2cc(Oc3ccc(NC(=O)Nc4cc(C(C)(C)C)cc(NS(C)(=O)=O)c4OC)c4ccccc34)ccn2)cc(OC)c1C(=O)NCC1CCN(C)CC1` [17(ca), 4-((4-((4-(3-(5-(tert-Butyl)-2-methoxy-3-(methylsulfonamido)phenyl)ureido)naphthalen-1-yl)oxy)pyridin-2-yl)amino)-2,6-dimethoxy-N-((1-methylpiperidin-4-yl)methyl)benzamide], the solubility (thermodynamic) at 24 h in data set [1] (setting [3]) and in data set [1] (setting [4]) was 2 µg/mL (≈ 2.38 µM) in each case. Besides, the “% Viability at 5 μg/mL” value in data set [2] turned out to be 94.0%.
Consider `COc1cc(Nc2cc(Oc3ccc(NC(=O)Nc4cc(C(C)(C)C)cc(NS(C)(=O)=O)c4OC)c4ccccc34)ccn2)ccc1C(=O)NCCN1CCN(C(=O)CC[C@H](N)C(=O)O)CC1` [17(cl), (S)-2-Amino-5-(4-(2-(4-((4-((4-(3-(5-(tert-butyl)-2-methoxy-3-(methylsulfonamido)-phenyl)ureido)naphthalen-1-yl)oxy)pyridin-2-yl)amino)-2-methoxybenzamido)ethyl)piperazin-1-yl)-5-oxopentanoic acid], for which the thermodynamic solubility at 24 h in data set [1] (setting [3]) was 9 µg/mL (≈ 9.57 µM); in data set [1] (setting [4]), 6 µg/mL (≈ 6.38 µM). Moreover, the “% Viability at 5 μg/mL” value in data set [2] was 94.0%.
